Results published in patent US10550143B2, “C,O-spiro aryl glycoside compounds, preparation therefor and use thereof” (SHANGHAI INSTITUTE OF MATERIA MEDICA, CHINESE ACADEMY OF …, priority 2015, dated 2020).
Marks after values point to notes of the source that are not given here.

Legend:
Assay type in all cases: in vivo, mouse
db/db mice [1] = assay: Chronic administration, fasting blood glucose in db/db mice; details: for fasting blood glucose Pre: before administration; for Hypoglycemic rate % week 1 / Hypoglycemic rate % week 2 / Hypoglycemic rate % week 3 / Hypoglycemic rate % week 4: fasting blood glucose
Method: (§1) Oral gavage administrated, daily dose volume was 10 mL/kg, administered once daily. Administration time was 9: 00-10:00 daily, and the administration period was 5 weeks.
The random blood glucose of mice in the normal control group, model control group, test substance administration group and positive control group were determined on the 7th, 14th, 21st, 28th day (9: 00-10:00) every week after the first administration, and food was removed and after 6 hours of starvation, the fasting blood glucose in each group was measured. Free drinking during the hunger process. The rate of decrease of blood glucose was calculated according to the following formula: Average hypoglycemic rate %=(Blood glucose of model control group−Blood glucose of administration group)/Model control group×100%

db/db mice [2] = assay: Chronic administration, oral glucose tolerance in db/db mice; details: glucose tolerance, chronic administration; for AUC0-2 h reduction rate (%): vs vehicle
Method: as §1
The glucose tolerance of mice of normal control group, model control group, test substance group and positive control group were determined 3 weeks after administration of drug, oral administrated with 1.5 g/kg of glucose, and taken 2 μL of blood on the tail. 4 μL of normal saline was added to 96 well sharp bottom plate to dilute evenly, and then the blood glucose was measured. The blood glucose levels before the sugar administration and at 15, 30, 60, 90 and 120 min after the sugar administration were measured. The true blood glucose level was calculated and the area under the blood glucose curve within 120 min was calculated by the following formula: AUC0-2h (mmol/L·h)=(BG0+BG15)×0.25/2+(BG15+BG30)×0.25/2+(BG30+BG60)×0.5/2+(BG60+[…])×1.0/2 Note: BG0, BG15, BG30, BG60 and BG120 represent the blood glucose levels before the sugar administration, and at 15, 30, 60, and 120 min after sugar administration, respectively. Average hypoglycemic rate %=(solvent control group AUC0-2h−administration group AUC0-2h)/solvent control group AUC0-2h*100%

C57BL/6J mice [3] = assay: Acute administration of A28 at multiple doses, urinary glucose of C57BL/6J mice; details: 24 h urine
Method: (1) 90 normal male C57BL/6J mice were selected and randomly divided into 9 groups according to body weight and blood glucose, 10 in each group. […] After oral gavage, the mice were placed in rats (mice) metabolic cages, […] and urine was collected after 24 h, and the urine volume was recorded, then preserved under −20° C. Rats take food and water freely during the experimental period.
(2) Index Determination: Glucose levels in urine are measured by the glucose assay kit.

C57BL/6J mice [4] = assay: Acute administration of A28 at multiple doses, oral glucose tolerance of C57BL/6J mice; details: C57BL/6J mice OGTT; for Blood glucose level 0: before sugar
Method: (1) Experimental Methods: 56 C57BL/6J mice were selected and starved for 6 h, took water freely, then randomly divided into 7 groups according to body weight and random blood glucose, 8 rats in each group. […] Average hypoglycemic rate %=(AUC0-120 min of solvent control group−AUC0-120 min of administration group)/(AUC0-120 min of solvent control group−AUC0-120 min of blank control group)*100%

In the case of `CCOc1ccc(Cc2cc([C@@H]3O[C@H](CO)[C@@H](O)[C@H](O)[C@H]3O)ccc2Cl)cc1` [Dapa], the “fasting blood glucose week 1” value (db/db mice [1]; 1 mg/kg once daily oral) is reported as 9.4 ± 0.6 mmol/L, the “fasting blood glucose week 2” value (db/db mice [1]; 1 mg/kg once daily oral) is reported as 9.0 ± 0.6 mmol/L and the “fasting blood glucose week 3” value (db/db mice [1]; 1 mg/kg once daily oral) is reported as 10.0 ± 1.0 mmol/L. For the same compound, the “fasting blood glucose week 4” value (db/db mice [1]; 1 mg/kg once daily oral) was 9.7 ± 0.7 mmol/L, the “fasting blood glucose Pre” value (db/db mice [1]; 1 mg/kg once daily oral) was 14.0 ± 1.0 mmol/L and the “fasting blood glucose week 1” value (db/db mice [1]; 3 mg/kg once daily oral) was 8.1 ± 0.6 mmol/L. For the same compound, the “fasting blood glucose week 2” value (db/db mice [1]; 3 mg/kg once daily oral) was 7.7 ± 0.6 mmol/L, the “fasting blood glucose week 3” value (db/db mice [1]; 3 mg/kg once daily oral) was 8.6 ± 0.4 mmol/L and the “fasting blood glucose week 4” value (db/db mice [1]; 3 mg/kg once daily oral) was 7.8 ± 0.4 mmol/L. The “fasting blood glucose Pre” value (db/db mice [1]; 3 mg/kg once daily oral) was 13.8 ± 1.2 mmol/L, the “Hypoglycemic rate % week 1” value (db/db mice [1]; 1 mg/kg once daily oral) was 30.3% and the “Hypoglycemic rate % week 2” value (db/db mice [1]; 1 mg/kg once daily oral) was 59.0%. The “Hypoglycemic rate % week 3” value (db/db mice [1]; 1 mg/kg once daily oral) was 43.9%, the “Hypoglycemic rate % week 4” value (db/db mice [1]; 1 mg/kg once daily oral) was 39.5% and the “Hypoglycemic rate % week 1” value (db/db mice [1]; 3 mg/kg once daily oral) was 39.8%. The “Hypoglycemic rate % week 2” value (db/db mice [1]; 3 mg/kg once daily oral) was 65.1%, the “Hypoglycemic rate % week 3” value (db/db mice [1]; 3 mg/kg once daily oral) was 51.6% and the “Hypoglycemic rate % week 4” value (db/db mice [1]; 3 mg/kg once daily oral) was 51.0%. For the same compound, the “Blood glucose AUC0-2 h” value (db/db mice [2]; dose 1 mg/kg) was 7.9 ± 1.7, the “Blood glucose (mmol/L) 0 min” value (db/db mice [2]; dose 1 mg/kg) was 10.0 ± 1.0 mmol/L and the “Blood glucose (mmol/L) 15 min” value (db/db mice [2]; dose 1 mg/kg) was 19.9 ± 1.0 mmol/L. The “Blood glucose (mmol/L) 30 min” value (db/db mice [2]; dose 1 mg/kg) was 20.3 ± 1.1 mmol/L, the “Blood glucose (mmol/L) 60 min” value (db/db mice [2]; dose 1 mg/kg) was 11.1 ± 0.5 mmol/L and the “Blood glucose (mmol/L) 90 min” value (db/db mice [2]; dose 1 mg/kg) was 10.8 ± 0.4* * mmol/L. The “Blood glucose (mmol/L) 120 min” value (db/db mice [2]; dose 1 mg/kg) was 11.8 ± 0.5* * mmol/L, the “AUC0-2 h reduction rate (%)” value (db/db mice [2]; dose 1 mg/kg) was 48.9% and the “Blood glucose AUC0-2 h” value (db/db mice [2]; dose 3 mg/kg) was 9.4 ± 1.7. The “Blood glucose (mmol/L) 0 min” value (db/db mice [2]; dose 3 mg/kg) was 8.6 ± 0.4 mmol/L, the “Blood glucose (mmol/L) 15 min” value (db/db mice [2]; dose 3 mg/kg) was 19.0 ± 1.2 mmol/L and the “Blood glucose (mmol/L) 30 min” value (db/db mice [2]; dose 3 mg/kg) was 20.2 ± 1.8 mmol/L. The “Blood glucose (mmol/L) 60 min” value (db/db mice [2]; dose 3 mg/kg) was 12.0 ± 1.4 mmol/L, the “Blood glucose (mmol/L) 90 min” value (db/db mice [2]; dose 3 mg/kg) was 9.9 ± 0.8 mmol/L and the “Blood glucose (mmol/L) 120 min” value (db/db mice [2]; dose 3 mg/kg) was 9.1 ± 0.6 mmol/L. For the same compound, the “AUC0-2 h reduction rate (%)” value (db/db mice [2]; dose 3 mg/kg) was 36.1%, the Total sugar excretion (C57BL/6J mice [3]; oral 1 mg/kg) was 258.20 ± 81.71 mg/100 g and the Urine concentration (C57BL/6J mice [3]; oral 1 mg/kg) was 142.82 ± 45.20 mmol/L. It also gave a Urine volume (C57BL/6J mice [3]; oral 1 mg/kg) of 2.3 ± 0.7 mL, a Total sugar excretion (C57BL/6J mice [3]; oral 3 mg/kg) of 315.49 ± 99.84 mg/100 g and a Urine concentration (C57BL/6J mice [3]; oral 3 mg/kg) of 177.86 ± 56.29 mmol/L. For the same compound, the Urine volume (C57BL/6J mice [3]; oral 3 mg/kg) was 2.3 ± 0.7 mL, the AUC0-2 h (C57BL/6J mice [4]; oral 0.3 mg/kg) was 20.9 ± 1.6 mmol·h/L and the “Average hypoglycemic rate % (0-2 h)” value (C57BL/6J mice [4]; oral 0.3 mg/kg) was 4.9%. The “Blood glucose level 15 min” value (C57BL/6J mice [4]; oral 0.3 mg/kg) was 13.4 ± 2.3 mmol/L, the “Blood glucose level 30 min” value (C57BL/6J mice [4]; oral 0.3 mg/kg) was 12.1 ± 1.0 mmol/L and the “Blood glucose level 60 min” value (C57BL/6J mice [4]; oral 0.3 mg/kg) was 10.6 ± 1.0 mmol/L. The “Blood glucose level 90 min” value (C57BL/6J mice [4]; oral 0.3 mg/kg) was 9.3 ± 1.1 mmol/L, the “Blood glucose level 120 min” value (C57BL/6J mice [4]; oral 0.3 mg/kg) was 8.8 ± 0.8 mmol/L and the “Blood glucose level 0” value (C57BL/6J mice [4]; oral 0.3 mg/kg) was 7.1 ± 0.4 mmol/L. The AUC0-2 h (C57BL/6J mice [4]; oral 1 mg/kg) was 19.3 ± 1.3 mmol·h/L, the “Average hypoglycemic rate % (0-2 h)” value (C57BL/6J mice [4]; oral 1 mg/kg) was 12.4% and the “Blood glucose level 15 min” value (C57BL/6J mice [4]; oral 1 mg/kg) was 12.3 ± 1.1 mmol/L. The “Blood glucose level 30 min” value (C57BL/6J mice [4]; oral 1 mg/kg) was 12.0 ± 1.1 mmol/L, the “Blood glucose level 60 min” value (C57BL/6J mice [4]; oral 1 mg/kg) was 9.1 ± 1.1 mmol/L and the “Blood glucose level 90 min” value (C57BL/6J mice [4]; oral 1 mg/kg) was 8.4 ± 0.9 mmol/L. For the same compound, the “Blood glucose level 120 min” value (C57BL/6J mice [4]; oral 1 mg/kg) was 8.5 ± 0.9 mmol/L, the “Blood glucose level 0” value (C57BL/6J mice [4]; oral 1 mg/kg) was 6.5 ± 0.9 mmol/L and the AUC0-2 h (C57BL/6J mice [4]; oral 3 mg/kg) was 18.2 ± 1.6 mmol·h/L. The “Average hypoglycemic rate % (0-2 h)” value (C57BL/6J mice [4]; oral 3 mg/kg) was 17.5%, the “Blood glucose level 15 min” value (C57BL/6J mice [4]; oral 3 mg/kg) was 11.6 ± 0.9 mmol/L and the “Blood glucose level 30 min” value (C57BL/6J mice [4]; oral 3 mg/kg) was 11.6 ± 1.1 mmol/L. For the same compound, the “Blood glucose level 60 min” value (C57BL/6J mice [4]; oral 3 mg/kg) was 8.9 ± 1.4 mmol/L, the “Blood glucose level 90 min” value (C57BL/6J mice [4]; oral 3 mg/kg) was 7.9 ± 1.1 mmol/L and the “Blood glucose level 120 min” value (C57BL/6J mice [4]; oral 3 mg/kg) was 7.0 ± 0.6 mmol/L. The “Blood glucose level 0” value (C57BL/6J mice [4]; oral 3 mg/kg) was 6.1 ± 1.0 mmol/L.
